Reference: ChEMBL document CHEMBL1275247, “Pharmacokinetics and safety of CXA-101, a new antipseudomonal cephalosporin, in healthy adult male and female subjects receiving single- and multiple-dose intravenous infusions” (Antimicrob Agents Chemother, 2010)

Legend:
[1] = Half-life in plasma of healthy human 1000 mg, iv administered as 1 hr infusion every 8 hrs for 10 days measured on day 1; assay type: ADME, organism-based
[2] = AUC (0 to infinity) in healthy human at 1000 mg, iv administered as 1 hr infusion every 8 hrs for 10 days measured on day 10; assay type: ADME, organism-based; parameters: dose 1000 mg, time infinity, route intravenous; settings: plasma
[3] = Clearance in healthy human at 500 mg, iv administered as single dose as 1 hr iv infusion; assay type: ADME, organism-based; settings: in vivo
[4] = Cmax in healthy human at 1000 mg, iv administered as 1 hr infusion every 8 hrs for 10 days measured on day 10; assay type: ADME, organism-based; parameters: dose 1000 mg, route intravenous; settings: in vivo
[5] = AUC (0 to infinity) in healthy human at 250 mg, iv administered as single dose as 1 hr iv infusion; assay type: ADME, organism-based; parameters: dose 250 mg, route intravenous, time infinity; settings: plasma
[6] = Half-life in plasma of healthy human 1500 mg, iv administered as 1 hr infusion every 12 hrs for 10 days measured on day 1; assay type: ADME, organism-based
[7] = Drug recovery in urine of healthy human at 500 mg, iv administered as 1 hr infusion every 8 hrs for 10 days measured on day 1; assay type: ADME, organism-based; settings: read-out: Activity
[8] = Volume of distribution at steady state in healthy human at 500 mg, iv administered as single dose as 1 hr iv infusion; assay type: ADME, organism-based; settings: in vivo
[9] = Mean residence time in healthy human at 1000 mg, iv administered as 1 hr infusion every 8 hrs for 10 days measured on day 1; assay type: ADME, organism-based; settings: in vivo
[10] = Half-life in plasma of healthy human 500 mg, iv administered as 1 hr infusion every 8 hrs for 10 days measured on day 1; assay type: ADME, organism-based
[11] = Cmax in healthy human at 2000 mg, iv administered as single dose as 1 hr iv infusion; assay type: ADME, organism-based; parameters: dose 2000 mg, route intravenous; settings: in vivo
[12] = Renal clearance in healthy human at 500 mg, iv administered as 1 hr infusion every 8 hrs for 10 days measured on day 10; assay type: ADME, organism-based, Kidney; settings: in vivo, read-out: CL_renal
[13] = Half-life in plasma of healthy human 1500 mg administered as single ascending dose, iv for 1 hr infusion; assay type: ADME, organism-based
[14] = Volume of distribution at steady state in healthy human at 500 mg, iv administered as 1 hr infusion every 8 hrs for 10 days measured on day 10; assay type: ADME, organism-based; settings: in vivo
[15] = Half-life in plasma of healthy human 1000 mg administered as single ascending dose, iv for 1 hr infusion; assay type: ADME, organism-based
[16] = Half-life in plasma of healthy human 500 mg administered as single ascending dose, iv for 1 hr infusion; assay type: ADME, organism-based
[17] = AUC (0 to infinity) in healthy human at 1500 mg, iv administered as 1 hr infusion every 12 hrs for 10 days measured on day 1; assay type: ADME, organism-based; parameters: dose 1500 mg, route intravenous, time infinity; settings: plasma
[18] = Drug recovery in urine of healthy human at 1000 mg, iv administered as 1 hr infusion every 8 hrs for 10 days measured on day 1; assay type: ADME, organism-based; settings: read-out: Activity
[19] = Tmax in healthy human at 250 mg, iv administered as single dose as 1 hr iv infusion; assay type: ADME, organism-based; settings: in vivo
[20] = Renal clearance in healthy human at 2000 mg, iv administered as single dose as 1 hr iv infusion; assay type: ADME, organism-based, Kidney; settings: in vivo, read-out: CL_renal
[21] = Tmax in healthy human at 500 mg, iv administered as single dose as 1 hr iv infusion; assay type: ADME, organism-based; settings: in vivo
[22] = Renal clearance in healthy human at 500 mg, iv administered as 1 hr infusion every 8 hrs for 10 days measured on day 1; assay type: ADME, organism-based, Kidney; settings: in vivo, read-out: CL_renal
[23] = Tmax in healthy human at 1500 mg, iv administered as single dose as 1 hr iv infusion; assay type: ADME, organism-based; settings: in vivo
[24] = Mean residence time in healthy human at 500 mg, iv administered as 1 hr infusion every 8 hrs for 10 days measured on day 1; assay type: ADME, organism-based; settings: in vivo
[25] = Drug recovery in urine of healthy human at 2000 mg, iv administered as single dose as 1 hr iv infusion after 24 hrs; assay type: ADME, organism-based; settings: read-out: Activity
[26] = Tmax in healthy human at 1500 mg, iv administered as 1 hr infusion every 12 hrs for 10 days measured on day 1; assay type: ADME, organism-based; settings: in vivo
[27] = Tmax in healthy human at 1000 mg, iv administered as 1 hr infusion every 8 hrs for 10 days measured on day 10; assay type: ADME, organism-based; settings: in vivo
[28] = Renal clearance in healthy human at 1500 mg, iv administered as single dose as 1 hr iv infusion; assay type: ADME, organism-based, Kidney; settings: in vivo, read-out: CL_renal
[29] = Mean residence time in healthy human at 2000 mg, iv administered as single dose as 1 hr iv infusion; assay type: ADME, organism-based; settings: in vivo
[30] = Mean residence time in healthy human at 500 mg, iv administered as single dose as 1 hr iv infusion; assay type: ADME, organism-based; settings: in vivo
[31] = Renal clearance in healthy human at 1500 mg, iv administered as 1 hr infusion every 12 hrs for 10 days measured on day 1; assay type: ADME, organism-based, Kidney; settings: in vivo, read-out: CL_renal
[32] = Drug recovery in urine of healthy human at 1000 mg, iv administered as single dose as 1 hr iv infusion after 24 hrs; assay type: ADME, organism-based; settings: read-out: Activity
Homo sapiens [33] = assay: Toxicity in healthy human assessed as occurrence of flushing at 1000 mg, iv administered as 1 hr infusion every 8 hrs for 10 days; assay type: organism-based; settings: in vivo
[34] = Half-life in plasma of healthy human 1000 mg, iv administered as 1 hr infusion every 8 hrs for 10 days measured on day 10; assay type: ADME, organism-based
Homo sapiens [35] = assay: Toxicity in healthy human assessed as occurrence of hypoaesthesia at 500 mg, iv administered as 1 hr infusion every 8 hrs for 10 days; assay type: organism-based; settings: in vivo
[36] = Renal clearance in healthy human at 1000 mg, iv administered as 1 hr infusion every 8 hrs for 10 days measured on day 1; assay type: ADME, organism-based, Kidney; settings: in vivo, read-out: CL_renal
[37] = Mean residence time in healthy human at 250 mg, iv administered as single dose as 1 hr iv infusion; assay type: ADME, organism-based; settings: in vivo
[38] = AUC (0 to infinity) in healthy human at 1000 mg, iv administered as 1 hr infusion every 8 hrs for 10 days measured on day 1; assay type: ADME, organism-based; parameters: dose 1000 mg, time infinity, route intravenous; settings: plasma
Homo sapiens [39] = assay: Toxicity in healthy human assessed as occurrence of nausea at 1000 mg, iv administered as single dose as 1 hr iv infusion; assay type: organism-based; settings: in vivo
[40] = AUC (0 to infinity) in healthy human at 1000 mg, iv administered as single dose as 1 hr iv infusion; assay type: ADME, organism-based; parameters: dose 1000 mg, route intravenous, time infinity; settings: plasma
[41] = Mean residence time in healthy human at 1000 mg, iv administered as 1 hr infusion every 8 hrs for 10 days measured on day 10; assay type: ADME, organism-based; settings: in vivo
[42] = Cmax in healthy human at 1500 mg, iv administered as 1 hr infusion every 12 hrs for 10 days measured on day 10; assay type: ADME, organism-based; parameters: dose 1500 mg, route intravenous; settings: in vivo
[43] = Cmax in healthy human at 1000 mg, iv administered as 1 hr infusion every 8 hrs for 10 days measured on day 1; assay type: ADME, organism-based; parameters: dose 1000 mg, route intravenous; settings: in vivo
[44] = Drug recovery in urine of healthy human at 1000 mg, iv administered as 1 hr infusion every 8 hrs for 10 days measured on day 10; assay type: ADME, organism-based; settings: read-out: Activity
[45] = AUC (0 to infinity) in healthy human at 2000 mg, iv administered as single dose as 1 hr iv infusion; assay type: ADME, organism-based; parameters: dose 2000 mg, route intravenous, time infinity; settings: plasma
[46] = Clearance in healthy human at 2000 mg, iv administered as single dose as 1 hr iv infusion; assay type: ADME, organism-based; settings: in vivo

half-life [1]: 143 min
AUC(0-inf) [2]: 143 µg·h/mL
clearance [3]: 99.1 mL/min
Cmax [4]: 58 µg/mL
AUC(0-inf) [5]: 40100 ng·h/mL
half-life [6]: 163 min
dose excreted at 1 day [7]: 82.9%
Vd [8]: 14.8 L
MRT [9]: 2.64 h
half-life [10]: 133 min
Cmax [11]: 128 µg/mL
CL renal [12]: 87.6 mL/min
half-life [13]: 157 min
Vd [14]: 14 L
half-life [15]: 135 min
half-life [16]: 140 min
AUC(0-inf) [17]: 219 µg·h/mL
dose excreted at 1 day [18]: 99.4%
Tmax [19]: 1.03 h
CL renal at 1 h [20]: 92.9 mL/min
Tmax [21]: 1.03 h
CL renal [22]: 78.4 mL/min
Tmax [23]: 1.03 h
MRT [24]: 2.42 h
dose excreted at 24 h [25]: 97.7%
Tmax [26]: 1.03 h
Tmax [27]: 1.05 h
CL renal at 1 h [28]: 96.2 mL/min
MRT [29]: 2.54 h
MRT [30]: 2.5 h
CL renal [31]: 119 mL/min
dose excreted at 24 h [32]: 85.2%
half-life [34]: 161 min
CL renal [36]: 112 mL/min
MRT [37]: 2.09 h
AUC(0-inf) [38]: 149 µg·h/mL
AUC(0-inf) [40]: 152 µg·h/mL
MRT [41]: 2.45 h
Cmax [42]: 82.6 µg/mL
Cmax [43]: 52.8 µg/mL
dose excreted at 10 day [44]: 94.1%
AUC(0-inf) [45]: 344 µg·h/mL
clearance [46]: 96.9 mL/min
SMILES: Cn1c(N)c(NC(=O)NCCN)c[n+]1CC1=C(C(=O)O)N2C(=O)[C@@H](NC(=O)/C(=N\OC(C)(C)C(=O)[O-])c3nsc(N)n3)[C@H]2SC1 [CEFTOLOZANE]
Activity (Homo sapiens [33]): Non-toxic
Activity (Homo sapiens [35]): Non-toxic
Activity (Homo sapiens [39]): Non-toxic
